PMC4965473 (Frontiers in Physiology, 2016)
Structures can show the parent of a compound that is named as a salt.

Columns and labels:
[1] = system: M2 transmembrane domain (M2TMD); conditions: cited from earlier work
wt M2TMD21−49 = system: wt M2TMD21−49; parameters: species or system influenza A

NC12CC3CC(CC(C3)C1)C2 [amantadine, amantadine hydrochloride]
binding affinity of amantadine versus pH [1]: Increased binding affinity of amantadine at neutral or basic pH, compared to acidic pH | effect of amantadine on M2TMD tetramer [1]: stabilizing effect of amantadine on M2TMD tetramer | effect of longer incubation with amantadine on DEER data (wt M2TMD21−49): did not produce any additional effect on the DEER data | effect of amantadine on DEER distances (wt M2TMD21−49; pH 5.5): do not change upon the addition of 2 mM amantadine | effect of amantadine on DEER signal / modulation depth (wt M2TMD21−49; pH 5.5): almost negligible
